According to patent publication US12629375B2, “Compounds with anti-tumor activity against cancer cells bearing HER2 exon 21 insertions” (Board of Regents, The University of Texas System, priority 2019, dated 2026):

Experiments:
[1] = test system: MCF10A cells expressing HER2 Y772dupYVMA; assay: MCF10A cell viability, HER2 Y772dupYVMA; type: cell-based; conditions: Homo sapiens, MCF-10A, 72 hours
Method: (§1) Cell Viability Assay and IC50 Estimation: Cell viability was determined using the Cell Titer Glo assay (Promega) as previously described (Robichaux et al., 2018). Briefly, 2000-3000 cells per well were plated in 384-well plates (Greiner Bio-One) in technical triplicate. Cells were treated with seven different concentrations of tyrosine kinase inhibitors or vehicle alone at a final volume of 40 μL per well. After 3 days, 11μL of Cell Titer Glo was added to each well. Plates were shaken for 15 minutes, and bioluminescence was determined using a FLUOstar OPTIMA multi-mode micro-plate reader (BMG LABTECH). Bioluminescence values were normalized to DMSO treated cells, and normalized values were plotted in GraphPad Prism using non-linear regression fit to normalized data with a variable slope. IC50 values were calculated by GraphPad Prism at 50% inhibition.
(§2) Human Cell lines: MCF10A cells were purchased from ATCC and were cultured in DMEM/F12 media supplemented with 1% penicillin/streptomycin, 5% horse serum (sigma), 20 ng/ml EGF, […] hydrocortisone, and 10 μg/ml insulin. Stable cell lines were created by retroviral transduction, and retroviruses were generated by transfecting pBabe-Puro based vectors summarized in Table 1 (Addgene and Bioinnovatise) into Phoenix 293T-ampho cells (Orbigen) using Lipofectamine 2000 (Invitrogen). […]

[2] = test system: HER2 Y772dupYVMA NSCLC PDX; assay: HER2 Y772dupYVMA NSCLC PDX model; type: in vivo, NSG mice
Method: Y772dupYVMA PDX mice were purchased from Jax Labs (Model #TM01446). Fragments from tumors expressing HER2 Y772dupYVMA were inoculated into 5- to 6-week old female NSG mice (Jax Labs #005557). Mice were measured three times per week, and when tumors reached a volume of 200-300 mm^3 mice were randomized into four treatment groups: vehicle control (0.5% Methylcellulose, 0.05% Tween-80 in dH2O), 2.5 mg/kg poziotinib, 10 mg/kg T-DM1, or combination of 2.5 mg/kg poziotinib and 10 mg/kg T-DM1. Tumor volumes and body weight were measured three times per week. Mice treated with 2.5 mg/kg poziotinib received drug orally Monday-Friday (5 days per week). Mice treated with 10 mg/kg T-DM1 received one intravenous (IV) dose of T-DM1 on the day of randomization. Mice treated with combination poziotinib and T-DM1 received one IV dose of T-DM1 and began 2.5 mg/kg poziotinib five days per week, 3 days after the dose of T-DM1. Mice received a holiday from dosing if the mouse dropped in body weight by greater than 10% or if body weight dropped below 20 grams. Progression free survival was defined as tumor doubling from best response for two consecutive measurements. Complete regression was defined as greater than 95% reduction in tumor burden, and for mice with complete regression, tumor doubling was defined greater than 75 mm^3 for more than two consecutive measurements. Experiments were completed in agreement with Good Animal Practices and with approval from MD Anderson Cancer Center Institutional Animal Care and Use Committee (Houston, TX).

[3] = test system: cell surface HER2 on MCF10A cells expressing HER2 mutations; assay: FACS of cell surface HER2 expression; type: cell-based, human; conditions: 10 nM, 24 hours, average of MCF10A HER2 mutant lines
Method: FACS: MCF10A cells overexpressing HER2 mutations were plated overnight in a 6-well plate, then treated with 10 nM poziotinib. After 24 hours, cells were washed twice with PBS, and trypsinized. Cells were then resuspended in 0.5% FBS in PBS, and stained with anti-HER2-FITC antibody from Biolegend (#324404) for 45 minutes on ice. Cells were washed with 0.5% FBS in PBS twice, and analyzed by flow cytometry. IgG and unstained controls were used for gating.

[4] = test system: CW-2 large intestine cells harboring HER2 exon 19 mutation L755S; assay: CW-2 cell viability; type: cell-based; conditions: Homo sapiens; CW-2 (HER2 L755S), 72 hours; read-out: average IC50
Method: as §1, §2

p-HER2 = assay: Western blot of p-HER2 in MCF10A HER2 G776delinsVC cells; type: cell-based, human; conditions: 10 nM, 2 hours treatment
Method: Western Blotting: For Western blotting, cells were washed in PBS and lysed in RIPPA lysis buffer (ThermoFisher) and protease inhibitor cocktail tablets (Roche). Protein (30-40 μg) was loaded into gels purchased from BioRad. BioRad semi-dry transfer was used and then probed with antibodies against, pHER2, HER2, pPI3K, PI3K, p-AKT, AKT, p-ERK1/2, and ERK1/2 (1:1000; Cell Signaling). Blots were probed with antibodies against vinculin or β-actin (Sigma-Aldrich) as a loading control, and exposed using ECL Western Blotting substrate (Promega).

C=CC(=O)N1CCC(Oc2cc3c(Nc4ccc(Cl)c(Cl)c4F)ncnc3cc2OC)CC1 [poziotinib, 1-[4-[4-(3,4-dichloro-2-fluoroanilino)-7-methoxyquinazolin-6-yl]oxypiperidin-1-yl]prop-2-en-1-one]
IC50 [1]: 8.3 nM
mice with complete tumor regression ([2]; day 15 (best response), poziotinib 2.5 mg/kg, T-DM1 10 mg/kg single dose): 0/12
median PFS (mPFS), time to tumor doubling from best response ([2]; poziotinib 2.5 mg/kg 5 days per week, T-DM1 10 mg/kg single IV dose): 15 days
increase of cell surface HER2 expression [3]: 2 fold
IC50 [4]: 3.19 nM
inhibition of p-HER2 (p-HER2): completely inhibits
